Assay results taken from patent US7445765B2, “Radiopharmaceutical for diagnostic imaging containing a technetium-99m nitride heterocomplex” (Nihon Medi-Physics Co., Ltd., priority 2000, dated 2008).

Legend:
[1] = Biodistribution of the 99mTc(N) heterocomplexes in rats (organ uptake, heart accumulation, heart/lung and heart/liver ratios); assay type: in vivo, female Sprague-Dawley rats
Method in brief: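 Female Sprague-Dawley rats (200–250 g, n=3), ketamine/xylazine anaesthesia, got 300–370 kBq of each purified heterocomplex in pH 7.4 phosphate buffer (10% ethanol) via the jugular vein. They were killed at several post-injection times. Heart blood and washed, weighed organs were gamma-counted, taking whole blood as 6.5% of body weight.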

[2] = Measurement of Log k′ (partition ratio) by HPLC, PNP3 heterocomplexes; assay type: physicochemical; settings: HPLC C18, methanol/phosphate buffer (0.02M, pH 7.4), 1.0 mL/min; extrapolated to 0% organic solvent
Experimental: For the various ^99mTc(N) heterocomplexes synthesized using PNP3 as a bisphosphinoamine compound in Example 1, Log k′ values were determined at various compositions of a mobile phase for HPLC. As the mobile phase, mixtures of methanol and phosphate buffer (0.02M, pH=7.4) were used at a flow rate of 1.0 mL/min. For each sample, the retention time was measured at a minimum of three different methanol concentrations in the mobile phase. The Log k′ values at 0% organic solvent (Log k′0) were extrapolated from the linear part of the curve Log k′=a+bC, where C is the methanol concentration, and Log k′ is Log (tR-to)/to wherein tR is HPLC retension time (min). The column void time (t0) was regarded as being equal to the elution time of pertechnetic acid.

[3] = Stability: ligand exchange reaction with cysteine or glutathione; assay type: physicochemical; settings: phosphate buffer pH 7.4, 37° C., up to 2 hours, TLC
Experimental: The stability of the ^99mTc(N) heterocomplexes obtained using PNP3 as a bisphosphinoamine compound in Example 1 was confirmed by ligand exchange reaction with cysteine or glutathione.
250.0 μL of phosphate buffer solution (0.20 M, pH=7.4), 100 μL of water and 100 μL of each of the ^99mTc(N) heterocomplexes purified were mixed with 50 μL of each of cysteine solutions having different concentrations of 10 mM and 1.0 mM, and the resulting mixture was placed in a polypropylene test tube and incubated in a thermostat at 37° C. A blank solution was obtained by mixing an equal volume of water without addition of cysteine. Aliquots of the resulting solutions were withdrawn at 15 min, 30 min, 60 min and 2 hours after the start of the incubation, and analyzed by TLC. The same experiment as above was carried out except for using glutathione in place of cysteine. All the ^99mTc(N) heterocomplex samples were found stable against transchelation by cystein or glutathione.

COCCC[P]1(CCCOC)CCN(CCOC)CC[P](CCCOC)(CCCOC)[99Tc+]12(#[N])[S]C(N(CCOC)CCOC)=[S]2 [[^99mTc(N) (PNP3) (DPODC)]^+]
Biodistribution in rats: Adrenal glands ([1]; 0 min post injection): 1.65 ± 0.22 % ID/g | Biodistribution in rats: Blood ([1]; 0 min post injection): 1.36 ± 0.02 % ID/g | Biodistribution in rats: Brain ([1]; 0 min post injection): 0.20 ± 0.02 % ID/g | Biodistribution in rats: Heart ([1]; 0 min post injection): 3.08 ± 0.31 % ID/g | Biodistribution in rats: Intestine ([1]; 0 min post injection): 3.25 ± 0.60 % ID/g | Biodistribution in rats: Kidneys ([1]; 0 min post injection): 6.36 ± 0.13 % ID/g | Biodistribution in rats: Liver ([1]; 0 min post injection): 3.48 ± 0.24 % ID/g | Biodistribution in rats: Lungs ([1]; 0 min post injection): 1.45 ± 0.04 % ID/g | Biodistribution in rats: Muscle ([1]; 0 min post injection): 0.27 ± 0.02 % ID/g | Biodistribution in rats: Spleen ([1]; 0 min post injection): 1.23 ± 0.01 % ID/g | Biodistribution in rats: Submaxillary glands ([1]; 0 min post injection): 2.27 ± 0.20 % ID/g | Biodistribution in rats: Adrenal glands ([1]; 2 min post injection): 0.98 ± 0.12 % ID/g | Biodistribution in rats: Blood ([1]; 2 min post injection): 0.30 ± 0.09 % ID/g | Biodistribution in rats: Brain ([1]; 2 min post injection): 0.02 ± 0.00 % ID/g | Biodistribution in rats: Heart ([1]; 2 min post injection): 2.06 ± 0.13 % ID/g | Biodistribution in rats: Intestine ([1]; 2 min post injection): 4.30 ± 1.74 % ID/g | Biodistribution in rats: Kidneys ([1]; 2 min post injection): 8.21 ± 0.62 % ID/g | Biodistribution in rats: Liver ([1]; 2 min post injection): 3.71 ± 0.36 % ID/g | Biodistribution in rats: Lungs ([1]; 2 min post injection): 0.65 ± 0.06 % ID/g | Biodistribution in rats: Muscle ([1]; 2 min post injection): 0.25 ± 0.04 % ID/g | Biodistribution in rats: Spleen ([1]; 2 min post injection): 0.51 ± 0.04 % ID/g | Biodistribution in rats: Submaxillary glands ([1]; 2 min post injection): 1.22 ± 0.11 % ID/g | Biodistribution in rats: Adrenal glands ([1]; 10 min post injection): 1.49 ± 0.82 % ID/g | Biodistribution in rats: Blood ([1]; 10 min post injection): 0.21 ± 0.00 % ID/g | Biodistribution in rats: Brain ([1]; 10 min post injection): 0.01 ± 0.00 % ID/g | Biodistribution in rats: Heart ([1]; 10 min post injection): 2.37 ± 0.33 % ID/g | Biodistribution in rats: Intestine ([1]; 10 min post injection): 4.36 ± 2.28 % ID/g | Biodistribution in rats: Kidneys ([1]; 10 min post injection): 6.82 ± 3.62 % ID/g | Biodistribution in rats: Liver ([1]; 10 min post injection): 3.49 ± 0.09 % ID/g | Biodistribution in rats: Lungs ([1]; 10 min post injection): 0.67 ± 0.23 % ID/g | Biodistribution in rats: Muscle ([1]; 10 min post injection): 0.29 ± 0.08 % ID/g | Biodistribution in rats: Spleen ([1]; 10 min post injection): 0.57 ± 0.22 % ID/g | Biodistribution in rats: Submaxillary glands ([1]; 10 min post injection): 1.70 ± 0.60 % ID/g | Biodistribution in rats: Adrenal glands ([1]; 20 min post injection): 1.46 ± 0.15 % ID/g | Biodistribution in rats: Blood ([1]; 20 min post injection): 0.08 ± 0.02 % ID/g | Biodistribution in rats: Brain ([1]; 20 min post injection): 0.01 ± 0.00 % ID/g | Biodistribution in rats: Heart ([1]; 20 min post injection): 2.49 ± 0.31 % ID/g | Biodistribution in rats: Intestine ([1]; 20 min post injection): 14.47 ± 4.75 % ID/g | Biodistribution in rats: Kidneys ([1]; 20 min post injection): 5.63 ± 2.05 % ID/g | Biodistribution in rats: Liver ([1]; 20 min post injection): 1.86 ± 0.47 % ID/g | Biodistribution in rats: Lungs ([1]; 20 min post injection): 0.43 ± 0.05 % ID/g | Biodistribution in rats: Muscle ([1]; 20 min post injection): 0.39 ± 0.12 % ID/g | Biodistribution in rats: Spleen ([1]; 20 min post injection): 0.38 ± 0.04 % ID/g | Biodistribution in rats: Submaxillary glands ([1]; 20 min post injection): 1.38 ± 0.07 % ID/g | Biodistribution in rats: Adrenal glands ([1]; 30 min post injection): 1.31 ± 0.19 % ID/g | Biodistribution in rats: Blood ([1]; 30 min post injection): 0.04 ± 0.00 % ID/g | Biodistribution in rats: Brain ([1]; 30 min post injection): 0.01 ± 0.00 % ID/g | Biodistribution in rats: Heart ([1]; 30 min post injection): 2.57 ± 0.06 % ID/g | Biodistribution in rats: Intestine ([1]; 30 min post injection): 11.78 ± 1.78 % ID/g | Biodistribution in rats: Kidneys ([1]; 30 min post injection): 4.88 ± 0.56 % ID/g | Biodistribution in rats: Liver ([1]; 30 min post injection): 1.30 ± 0.71 % ID/g | Biodistribution in rats: Lungs ([1]; 30 min post injection): 0.41 ± 0.04 % ID/g | Biodistribution in rats: Muscle ([1]; 30 min post injection): 0.32 ± 0.08 % ID/g | Biodistribution in rats: Spleen ([1]; 30 min post injection): 0.37 ± 0.00 % ID/g | Biodistribution in rats: Submaxillary glands ([1]; 30 min post injection): 1.53 ± 0.17 % ID/g | Biodistribution in rats: Adrenal glands ([1]; 60 min post injection): 1.17 ± 0.17 % ID/g | Biodistribution in rats: Blood ([1]; 60 min post injection): 0.02 ± 0.01 % ID/g | Biodistribution in rats: Brain ([1]; 60 min post injection): 0.01 ± 0.00 % ID/g | Biodistribution in rats: Heart ([1]; 60 min post injection): 2.26 ± 0.60 % ID/g | Biodistribution in rats: Intestine ([1]; 60 min post injection): 11.05 ± 5.05 % ID/g | Biodistribution in rats: Kidneys ([1]; 60 min post injection): 3.44 ± 0.76 % ID/g | Biodistribution in rats: Liver ([1]; 60 min post injection): 0.42 ± 0.23 % ID/g | Biodistribution in rats: Lungs ([1]; 60 min post injection): 0.27 ± 0.09 % ID/g | Biodistribution in rats: Muscle ([1]; 60 min post injection): 0.27 ± 0.04 % ID/g | Biodistribution in rats: Spleen ([1]; 60 min post injection): 0.18 ± 0.10 % ID/g | Biodistribution in rats: Submaxillary glands ([1]; 60 min post injection): 1.33 ± 0.46 % ID/g | Biodistribution in rats: Adrenal glands ([1]; 120 min post injection): 1.14 ± 0.15 % ID/g | Biodistribution in rats: Blood ([1]; 120 min post injection): 0.01 ± 0.00 % ID/g | Biodistribution in rats: Brain ([1]; 120 min post injection): 0.01 ± 0.00 % ID/g | Biodistribution in rats: Heart ([1]; 120 min post injection): 2.45 ± 0.41 % ID/g | Biodistribution in rats: Intestine ([1]; 120 min post injection): 16.10 ± 2.10 % ID/g | Biodistribution in rats: Kidneys ([1]; 120 min post injection): 3.43 ± 0.38 % ID/g | Biodistribution in rats: Liver ([1]; 120 min post injection): 0.16 ± 0.04 % ID/g | Biodistribution in rats: Lungs ([1]; 120 min post injection): 0.20 ± 0.04 % ID/g | Biodistribution in rats: Muscle ([1]; 120 min post injection): 0.36 ± 0.12 % ID/g | Biodistribution in rats: Spleen ([1]; 120 min post injection): 0.14 ± 0.03 % ID/g | Biodistribution in rats: Submaxillary glands ([1]; 120 min post injection): 1.36 ± 0.14 % ID/g | Log k′ (partition ratio) [2]: 3.18 | Stability [3]: Stable
